Laboratory results: patent US11882828B2, “Mosquito vector control compositions, methods and products utilizing same” (priority 2015, dated 2024)

Columns and labels:
Test in all cases: whole plant or invertebrate
[1] = system: Anopheles stephensi (Indian malaria mosquito); settings: Anopheles stephensi
Procedure: […] Once the deposits were dry, five non-blood fed adult female Anopheles stephensi (between two to five days old) were added to each well, and sustained with a 10% sucrose solution in a cotton wool plug. Assessment of the knockdown after 1 hour, and mortality after 48 hours was carried out.
(§1) In case of multiple tests, the mean value is reported.

Anopheles stephensi = settings: Anopheles stephensi, 48 h
Procedure: (§2) The individual wells of six (6) well tissue culture plates were treated with 250 μl of an ethanol solution containing a test compound at a defined concentration. Once the deposits were dry, ten non-blood fed adult female Aedes aegypti or Anopheles stephensi (each between two to five day old) were added to each well, and sustained with a 10% sucrose solution in a cotton wool plug.
(§3) Assessment of the mortality was carried out at 48 hours.
(§4) Each treatment was replicated twice, with the mean mortality recorded.

Aedes aegypti = settings: Aedes aegypti, 48 h
Procedure: as §2, §3, §4

[2] = system: Aedes aegypti (Yellow fever mosquito); settings: Aedes aegypti
Procedure: […] Once the deposits were dry, five non-blood fed adult female Aedes aegypti (between two to five days old) were added to each well, and sustained with a 10% sucrose solution in a cotton wool plug. Assessment of the knockdown after 1 hour, and mortality after 48 hours was carried out.
as §1

| SMILES | pest or weed control at 20 ppm ([2]; 1 h, read-out: Knockdown) [%] | mortality at 20 ppm ([2]; 48 h) [%] | pest or weed control at 20 ppm ([1]; 1 h, read-out: Knockdown) [%] | mortality at 20 ppm ([1]; 48 h) [%] | other results |
| --- | --- | --- | --- | --- | --- |
| CC1(C)[C@H](C(=O)O[C@H](C#N)c2cccc(Oc3ccccc3)c2)[C@@H]1/C=C(\Cl)C(F)(F)F (racemic) [Lambda-cyhalothrin, reference compound] |  |  |  |  | pest or weed control at 2 ppm ([1]; 1 h, read-out: Knockdown): 83%; mortality at 2 ppm ([1]; 48 h): 100%; mortality at 0.2 ppm (Anopheles stephensi): 84%; mortality at 0.2 ppm (Aedes aegypti): 99%; pest or weed control at 2 ppm ([2]; 1 h, read-out: Knockdown): 92%; mortality at 2 ppm ([2]; 48 h): 100% |
| CO/C=C(/C(=O)OC)c1ccccc1Oc1ncc(C(C)(C)C)s1 [AA] | 0 | 0 |  |  |  |
| C=CCOC(=O)c1cccn1/C(=C\OC)C(=O)OC [AB, reference compound] | 60 | 100 | 100 | 100 | mortality at 5 ppm (Anopheles stephensi): 80%; mortality at 5 ppm (Aedes aegypti): 75% |
| CO/C=C(/C(=O)OC)c1ccccc1COc1cccc(C(F)(F)F)n1 [AC, Picoxystrobin, reference compound] | 0 | 40 | 100 | 100 | mortality at 5 ppm (Anopheles stephensi): 75%; mortality at 5 ppm (Aedes aegypti): 4% |
| CCc1nnc(Oc2ccccc2/C(=C\OC)C(=O)OC)s1 [AD] | 0 | 0 |  |  |  |
| CCCCO/N=C(C)/C(C)=N/OCc1ccccc1/C(=C\OC)C(=O)OC [B] | 0 | 0 |  |  |  |
| CO/C=C(/C(=O)OC)c1ccccc1COc1cc(C(F)(F)F)nc(OC(C)C)n1 [C, Fluacrypyrim] | 0 | 0 |  |  |  |
| CO/C=C(/C(=O)OC)c1ccccc1CO/N=C(C)/C(C)=N/OC [Compound 1] | 50 | 90 | 40 | 100 | mortality at 5 ppm (Anopheles stephensi): 100%; mortality at 5 ppm (Aedes aegypti): 74% |
| CO/C=C(/C(=O)OC)c1ccccc1Oc1nnc(C(C)(C)C)o1 [Compound 2, methyl (E)-2-[2-[(5-tert-butyl-1,3,4-oxadiazol-2-yl)oxy]phenyl]-3-methoxy-prop-2-enoate] | 0 | 80 | 40 | 100 | mortality at 5 ppm (Anopheles stephensi): 100%; mortality at 5 ppm (Aedes aegypti): 90% |
| CO/C=C(/C(=O)OC)c1ccccc1Oc1cncc(OCC(F)(F)F)n1 [Compound 3] | 0 | 100 | 100 | 100 |  |
| CO/C=C(/C(=O)OC)c1ccccc1Oc1cc(C(C)(C)C)ncn1 [Compound 9] | 0 | 80 | 100 | 100 |  |
| CO/C=C(/C(=O)OC)c1ccccc1Oc1cc(C(F)(F)F)ncn1 [Compound 11, methyl (E)-3-methoxy-2-[2-[6-(trifluoromethyl)pyrimidin-4-yl]oxyphenyl]prop-2-enoate] | 100 | 100 | 80 | 100 |  |
| CO/C=C(/C(=O)OC)c1ccccc1Oc1nccc(C(C)(C)C)n1 [Compound 14] | 0 | 40 | 0 | 100 |  |
| CO/C=C(/C(=O)OC)c1ccccc1CO/N=C(\C)c1cc(C(F)(F)F)ccn1 [Compound 15] | 50 | 100 | 40 | 100 | mortality at 5 ppm (Anopheles stephensi): 95%; mortality at 5 ppm (Aedes aegypti): 70% |
| CCCc1cccc(OCc2ccccc2/C(=C\OC)C(=O)OC)n1 [Compound 16] | 0 | 80 | 20 | 100 | mortality at 5 ppm (Anopheles stephensi): 95%; mortality at 5 ppm (Aedes aegypti): 20% |
| CO/C=C(/C(=O)OC)c1ccccc1CO/N=C(\C)c1cc(C(F)(F)C(F)(F)F)ncn1 [Compound 18] | 0 | 40 | 100 | 100 | mortality at 5 ppm (Anopheles stephensi): 100%; mortality at 5 ppm (Aedes aegypti): 70% |
| CO/C=C(/C(=O)OC)c1ccccc1COc1ncccc1C(F)(F)F [Compound 19, Methyl (E)-3-methoxy-2-[2-[[3-(trifluoromethyl)-2-pyridyl]oxymethyl]phenyl]prop-2-enoate] | 20 | 100 | 40 | 100 | mortality at 5 ppm (Anopheles stephensi): 100%; mortality at 5 ppm (Aedes aegypti): 75% |
| CO/C=C(/C(=O)OC)c1ccccc1Oc1ncc([N+](=O)[O-])s1 [D] | 0 | 0 |  |  |  |
| CO/C=C(/C(=O)OC)c1ccccc1CCc1cc(C(F)(F)F)ccn1 [E] | 0 | 0 |  |  |  |
| CO/C=C(/C(=O)OC)c1ccccc1CO/N=C(\C)c1cc(C(F)(F)F)ncn1 [G] | 0 | 0 |  |  |  |

| SMILES | pest or weed control at 20 ppm ([2]; 1 h, read-out: Knockdown) [%] | mortality at 20 ppm ([2]; 48 h) [%] | pest or weed control at 20 ppm ([1]; 1 h, read-out: Knockdown) [%] | mortality at 20 ppm ([1]; 48 h) [%] | other results |
| --- | --- | --- | --- | --- | --- |
| CO/C=C(/C(=O)OC)c1ccccc1CO/N=C(\C)c1cccc(C(F)(F)F)n1 [H] | 0 | 0 |  |  |  |
| CO/C=C(/C(=O)OC)c1ccccc1Oc1cc(Cl)ccn1 [I] | 0 | 40 |  |  |  |
| CO/C=C(/C(=O)OC)c1ccccc1Oc1cc(OCC(F)(F)F)ncn1 [J] | 0 | 0 |  |  |  |
| CCCc1nnc(Oc2ccccc2/C(=C\OC)C(=O)OC)o1 [K] | 0 | 0 |  |  |  |
| CCC(CC)/C(C)=N/OCc1ccccc1/C(=C\OC)C(=O)OC [L] | 0 | 0 |  |  |  |
| CO/C=C(/C(=O)OC)c1ccccc1Oc1nc(CC(C)(C)C)ns1 [M] | 0 | 0 |  |  |  |
| CO/C=C(/C(=O)OC)c1ccccc1Oc1nccc(OC(C)(C)C)n1 [N] | 0 | 0 |  |  |  |
| CO/C=C(/C(=O)OC)c1ccccc1Oc1ncnc(C2CC2)n1 [O] | 0 | 0 |  |  |  |
| CO/C=C(/C(=O)OC)c1ccccc1COc1cccc(C(C)(C)C)n1 [P] | 0 | 0 |  |  |  |
| CN/C(C)=N/OCc1ccccc1/C(=C\OC)C(=O)OC [Q] | 0 | 0 |  |  |  |
| CO/C=C(/C(=O)OC)c1ccccc1CO/N=C(C)/C=C/c1ccc(Cl)cc1 [R, Enoxastrobin] | 0 | 0 |  |  |  |
| CO/C=C(/C(=O)OC)c1ccccc1COc1cc(-c2ccc(Cl)cc2)nn1C [S, Pyraoxystrobin] | 0 | 0 |  |  |  |
| CCCCc1c(C)c2ccc(OCc3ccccc3/C(=C\OC)C(=O)OC)cc2oc1=O [T, Coumoxystrobin] | 0 | 0 |  |  |  |
| CO/C=C(/C(=O)OC)c1ccccc1COc1cc(C(F)(F)F)nc(Nc2ccc(Cl)cc2Cl)n1 [U, Pyriminostrobin] | 0 | 0 |  |  |  |
| CO/C=C(/C(=O)OC)c1ccccc1COc1nc2cc(C(F)(F)F)ccc2nc1C(F)(F)F [V] | 0 | 0 |  |  |  |
| CO/C=C(/C(=O)OC)c1ccccc1COc1nc2ccc(C(F)(F)F)cc2nc1C(F)(F)F [W] | 0 | 0 |  |  |  |
| CO/C=C(/C(=O)OC)c1ccccc1COc1nccnc1C#N [X] | 0 | 0 |  |  |  |
| CO/C=C(/C(=O)OC)c1ccccc1Oc1nnc(C(C)(C)C)s1 [Y] | 0 | 0 |  |  |  |
| CCC(C)c1noc(Oc2ccccc2/C(=C\OC)C(=O)OC)n1 (centres unmarked) [Z] | 0 | 0 |  |  |  |
